In patent US11225484B2, “Substituted octahydropyrrolo[3,4-b]pyrroles as antagonists of the muscarinic acetylcholine receptor M4” (Vanderbilt University, priority 2017, dated 2022) one finds remaining activity and IC50 data, which are given here for ten compounds.

One assay has as its target T1, Rat M4 (Rattus norvegicus, UniProt P08485).
T1 construct: expressed in transfected cells; host or cells: CHO-K1 (ATCC), co-transfected with chimeric G protein Gqi5
T1 sequence (P08485 1-478): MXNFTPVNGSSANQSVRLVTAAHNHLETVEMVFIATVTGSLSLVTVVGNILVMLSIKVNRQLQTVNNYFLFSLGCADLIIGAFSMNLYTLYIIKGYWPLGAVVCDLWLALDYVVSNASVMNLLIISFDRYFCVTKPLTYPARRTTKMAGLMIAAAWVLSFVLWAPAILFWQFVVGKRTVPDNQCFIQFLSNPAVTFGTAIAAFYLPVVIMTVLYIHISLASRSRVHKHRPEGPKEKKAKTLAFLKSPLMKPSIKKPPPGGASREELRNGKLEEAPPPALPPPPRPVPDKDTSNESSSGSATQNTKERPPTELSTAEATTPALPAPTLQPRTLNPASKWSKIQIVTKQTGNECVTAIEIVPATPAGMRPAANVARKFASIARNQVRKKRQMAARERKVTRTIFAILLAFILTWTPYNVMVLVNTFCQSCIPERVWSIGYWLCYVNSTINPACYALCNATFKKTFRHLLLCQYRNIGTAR
Nature of the assay: mAChR M4 cell-based functional assay (calcium flux, rat M4/Gqi5/CHO cells). The settings on record: for remaining activity at 30 µM: CHO, % ACh maximum at 30 μM, read-out: Emin (%) rat M4; for IC50: antagonist mode, decrease of the response to an EC80 concentration of acetylcholine, CHO-K1 cells with Gqi5. Here is the method:
(§1) Human or rat M4 cDNA, along with the chimeric G protein Gqi5, were transfected into Chinese hamster ovary (CHO-K1) cells purchased from the American Type Culture Collection using Lipofectamine2000. M4/Gqi5/CHO cells were grown in Ham's F-12 medium containing 10% heat-inactivated fetal bovine serum (FBS), 20 mM HEPES, 500 μg/mL G418 sulfate, and 200 μg/mL Hygromycin B.
(§2) For high throughput measurement of agonist-evoked increases in intracellular calcium, CHO-K1 cells stably expressing muscarinic receptors were plated in growth medium lacking G418 and hygromycin at 15,000 cells/20 μL/well in Greiner 384-well black-walled, tissue culture (TC)-treated, clear-bottom plates (VWR). Cells were incubated overnight at 37° C. and 5% CO2. The next day, cells were washed using an ELX 405 (BioTek) with assay buffer; the final volume was then aspirated to 20 μL. Next, 20 μL of a 2.3 μM stock of Fluo-4/acetoxymethyl ester (Invitrogen, Carlsbad, Calif.), prepared as a 2.3 mM stock in DMSO and mixed in a 1:1 ratio with 10% (w/v) Pluronic F-127 and diluted in assay buffer, was added to the wells and the cell plates were incubated for 50 min at 37° C. and 5% CO2. Dye was removed by washing with the ELX 405 and the final volume was aspirated to 20 μL. Compound master plates were formatted in a 10 point concentration-response curve (CRC) format (1:3 dilutions) in 100% DMSO with a starting concentration of 10 or 1 mM using a BRAVO liquid handler (Agilent). Test compound CRCs were then transferred to daughter plates (240 nL) using the Echo acoustic plate reformatter (Labcyte, Sunnyvale, Calif.) and then diluted into assay buffer (40 μL) to a 2× stock using a Thermo Fisher Combi (Thermo Fisher Scientific, Waltham, Mass.).
(§3) Calcium flux was measured using the Functional Drug Screening System (FDSS) 6000 or 7000 (Hamamatsu Corporation, Tokyo, Japan) as an increase in the fluorescent static ratio. Compounds were applied to cells (20 μL, 2×) using the automated system of the FDSS at 2 seconds into the protocol and the data were collected at 1 Hz. At 143 s, 10 μL of an EC20 concentration of the muscarinic receptor agonist acetylcholine was added (5×), followed by the addition of 12 μL of an EC80 concentration of acetylcholine at the 268 s time point (5×). Agonist activity was analyzed as a concentration-dependent increase in calcium mobilization upon compound addition. Positive allosteric modulator activity was analyzed as a concentration-dependent increase in the EC20 acetylcholine response. Antagonist activity was analyzed as a concentration-dependent decrease in the EC80 acetylcholine response for the purposes of the tables herein, an IC50 (inhibitory concentration 50) was calculated as a concentration-dependent decrease of the response elicited by an EC80 concentration of acetylcholine, Concentration-response curves were generated using a four-parameter logistical equation in XLFit curve fitting software (IDBS, Bridgewater, N.J.) for Excel (Microsoft, Redmond, Wash.) or Prism (GraphPad Software, Inc., San Diego, Calif.) or the Dotmatics software platform (Dotmatics, Bishop's Stortford, UK).
(§4) Compounds were synthesized as described above. Activity (IC50 and Emin) was determined in the mAChR M4 cell-based functional assay as described above and the data are shown in Table 2. The compound number corresponds to the compound numbers used in Examples 1-3.
(Calcium flux is commonly read through the fluorescence of an indicator in the cells.)

For another assay, the target named is T2, Human M4 (Homo sapiens, UniProt P08173).
T2 construct: expressed in transfected cells; host or cells: CHO-K1 (ATCC), co-transfected with chimeric G protein Gqi5
T2 sequence (P08173 1-479): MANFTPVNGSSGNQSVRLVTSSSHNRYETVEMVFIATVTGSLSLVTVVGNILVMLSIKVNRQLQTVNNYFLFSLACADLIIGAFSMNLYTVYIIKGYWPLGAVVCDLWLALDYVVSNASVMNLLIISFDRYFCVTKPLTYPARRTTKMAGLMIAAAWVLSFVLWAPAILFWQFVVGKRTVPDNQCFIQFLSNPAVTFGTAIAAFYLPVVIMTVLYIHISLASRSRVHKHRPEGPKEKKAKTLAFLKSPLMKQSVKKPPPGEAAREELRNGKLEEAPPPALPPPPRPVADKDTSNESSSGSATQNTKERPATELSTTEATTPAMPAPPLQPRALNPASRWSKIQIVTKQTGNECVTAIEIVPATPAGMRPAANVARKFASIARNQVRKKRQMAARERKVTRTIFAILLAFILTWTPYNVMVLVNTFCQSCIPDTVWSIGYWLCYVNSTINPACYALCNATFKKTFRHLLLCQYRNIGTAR
Nature of the assay: mAChR M4 cell-based functional assay (calcium flux, human M4/Gqi5/CHO cells). The conditions noted are these: for remaining activity at 30 µM: CHO, % ACh maximum at 30 μM, read-out: Emin (%) human M4; for IC50: antagonist mode, decrease of the response to an EC80 concentration of acetylcholine, CHO-K1 cells with Gqi5. Here is the method: as §1, §2, §3, §4

In the case of `Cc1cnn(C)c1-c1ccc(N2CCC3CN(CC(c4ccccc4)c4ccccc4)CC32)nn1` (stereo not drawn) [Compound 14, 1-(6-(1,4-dimethyl-1H-pyrazol-5-yl)pyridazin-3-yl)-5-(2,2-diphenylethyl)octahydropyrrolo[3,4-b]pyrrole], the values for the remaining activity at 30 µM on Rat M4 and on Human M4 were 48.3% and 8.96%, respectively. The IC50 at Rat M4 was greater than 10000 nM; on Human M4, 9190 nM.

As for `Cc1nn(C)c(C)c1-c1ccc(N2CCC3CN(CC45CC6CC(CC(C6)C4)C5)CC32)nn1` (stereo not drawn) [Compound 19, 5-(adamantan-1-ylmethyl)-1-(6-(1,3,5-trimethyl-1H-pyrazol-4-yl)pyridazin-3-yl)octahydropyrrolo[3,4-b]pyrrole], on Rat M4, the remaining activity at 30 µM amounted to 4.41% and the IC50 is 365 nM. Moreover, on Human M4, the remaining activity at 30 µM turned out to be 3.18% and the IC50 turned out to be 129 nM.

With `Cc1cnn(C)c1-c1ccc(N2CCC3CN(Cc4ccccc4)CC32)nn1` (stereo not drawn) [Compound 5, 5-benzyl-1-(6-(1,4-dimethyl-1H-pyrazol-5-yl)pyridazin-3-yl)octahydropyrrolo[3,4-b]pyrrole], on Human M4, the remaining activity at 30 µM stood at 46.7% and the IC50 is greater than 10000 nM.

For `Fc1ccc(Cl)c(-c2ccc(N3CCC4CN(CC56CC7CC(CC(C7)C5)C6)CC43)nn2)c1` (stereo not drawn) [Compound 17, 5-(adamantan-1-ylmethyl)-1-(6-(2-chloro-5-fluorophenyl)pyridazin-3-yl)octahydropyrrolo[3,4-b]pyrrole], on Rat M4, the remaining activity at 30 µM was found to be 49.1% and the IC50 is greater than 10000 nM. For the same compound, on Human M4, the remaining activity at 30 µM is 20.2% and the IC50 was greater than 10000 nM.

`CCc1ccncc1-c1ccc(N2CCC3CN(CC45CC6CC(CC(C6)C4)C5)CC32)nn1` (stereo not drawn) [Compound 15, 5-(adamantan-1-ylmethyl)-1-(6-(4-ethylpyridin-3-yl)pyridazin-3-yl)octahydropyrrolo[3,4-b]pyrrole]: on Rat M4, the remaining activity at 30 µM was found to be 3.98% and the IC50 turned out to be 1710 nM. Also, on Human M4, the remaining activity at 30 µM was found to be 4.18% and the half-maximal inhibitory concentration (IC50) was 899 nM.

On to `Cc1cnn(C)c1-c1ccc(N2CCC3CN(CC4CC5C=CC4C5)CC32)nn1` (stereo not drawn) [Compound 3, 5-(bicyclo[2.2.1]hept-5-en-2-ylmethyl)-1-(6-(1,4-dimethyl-1H-pyrazol-5-yl)pyridazin-3-yl)octahydropyrrolo[3,4-b]pyrrole], for which, on Rat M4, the remaining activity at 30 µM amounted to 16.8% and the IC50 is 3570 nM. At Human M4, the remaining activity at 30 µM amounted to 4.28% and the IC50 came to 800 nM.

With `Cc1cnn(C)c1-c1ccc(N2CCC3CN(CCc4ccccc4)CC32)nn1` (stereo not drawn) [Compound 6, 1-(6-(1,4-ditnethyl-1H-pyrazol-5-yl)pyridazin-3-yl)-5-phenethyloctahydropyrrolo[3,4-b]pyrrole], the values for the remaining activity at 30 µM on Rat M4 and on Human M4 were 30.9% and 7.19%, respectively. The IC50 on Rat M4 is greater than 10000 nM; at Human M4, 1980 nM.

Take `Cc1cnn(C)c1-c1ccc(N2CCC3CN(CCC(C)c4ccccc4)CC32)nn1` (stereo not drawn) [Compound 9, 1-(6-(1,4-dimethyl-1H-pyrazol-5-yl)pyridazin-3-yl)-5-(3-phenylbutyl)octahydropyrrolo[3,4-b]pyrrole]: at Rat M4, the remaining activity at 30 µM was found to be 6.32% and the concentration for half-maximal inhibition (IC50) was 2330 nM. Further, at Human M4, the remaining activity at 30 µM was 4.33% and the IC50 turned out to be 498 nM.

On to `Cc1cnn(C)c1-c1ccc(N2CCC3CN(CCC(C)(C)C)CC32)nn1` (stereo not drawn) [Compound 20, 1-(6-(1,4-dimethyl-1H-pyrazol-5-yl)pyridazin-3-yl)-5-(3,3-dimethylbutyl)octahydropyrrolo[3,4-b]pyrrole], for which, on Rat M4, the remaining activity at 30 µM was found to be 22.7% and the IC50 was greater than 10000 nM. Moreover, at Human M4, the remaining activity at 30 µM worked out at 8.8% and the IC50 was found to be 2220 nM.

As for `Cc1cnn(C)c1-c1ccc(N2CCC3CN(CC45CC6CC(CC(C6)C4)C5)CC32)nn1` (stereo not drawn) [Compound 1, 5-(Adamantan-1-ylmethyl)-1-(6-(1,4-dimethyl-1H-pyrazol-5-y)pyridazin-3-yl)octahydropyrrolo[3,4-b]pyrrole], on Rat M4, the remaining activity at 30 µM was determined as 4.61% and the IC50 was found to be 509 nM.

The term IC50 denotes the midpoint of a concentration-inhibition curve.
